Experimental data from patent US9115341B2, “Method for expanding hematopoietic stem cells using heterocyclic compound” (Nissan Chemical Industries, Ltd., priority 2007, dated 2015).

system: human cord blood-derived CD34+ cells; experiment: Expansion of CD34+ cells from human cord blood-derived CD34+ cells; assay type: cell-based; settings: 168 h, 0.3 μg/mL compound, number of CD34+ cells relative to absence of compound, 7 days, StemSpan SFEM with 100 ng/mL SCF, read-out: Expansion efficiency
Description: Commercially available human cord blood-derived CD34^+ cells (Cambrex Bio Science Walkersville) were plated on a 12-well plate (Corning) (from 5000 to 10000 cells/1 ml/well). As the culture medium, StemSpan SFEM (Stemcell Technologies) containing 100 ng/mL SCF (R&D Systems) was used, and Compounds Nos. 1 to 37 dissolved in dimethyl sulfoxide were added in an amount of 0.1% (v/v) to a final concentration of 0.3 or 1 μg/mL.
After the cells were incubated in liquid culture at 37° C. for 7 days in a CO2 incubator (in an atmosphere containing 5 vol % CO2), the total number of cells was counted by trypan blue assay (Invitrogen) or Flow-Count™ fluorosphere assay (Beckman Coulter). The number of CD34^+ cells was calculated as follows. After the incubation, the cells in the liquid culture was stained with a CD34 antibody (PE, Becton, Dickinson and Company). The stained cells were analyzed with a flow cytometer (Beckman Coulter) to determined the proportion of CD34^+ cells, which was multiplied by the total number of cells to calculate the number of CD34^+ cells.
The expansion efficiencies in the presence of 0.3 μg/mL or 1 μg/mL of compounds based on the number of CD34^+ cells in the absence of them are shown in Table 2 on a scale of A for expansion efficiencies of 3 or greater, and B for expansion efficiencies of at least 2 and less than 3.

Row | SMILES | fold induction at 0.3 µg/mL
1 | C/C(=N\NC(=O)c1ccc(C(=O)NCCc2ccccn2)s1)c1csc(-c2ccc(Cl)c(Cl)c2)c1O [Compound 27] | 2 to 3
2 | C/C(=N\NC(=O)c1ccc(C(=O)NCCc2cccnc2)s1)c1csc(-c2ccc(Cl)c(Cl)c2)c1O [Compound 29] | ≥ 3
3 | C/C(=N\NC(=O)c1ccc(C(=O)NCCc2ccncc2)s1)c1csc(-c2ccc(OC(F)(F)F)cc2)c1O [Compound 30] | ≥ 3
4 | C/C(=N\NC(=O)c1ccc(C(=O)NCCc2ccncc2)s1)c1csc(-c2ccc(C(F)(F)F)cc2)c1O [Compound 31] | ≥ 3
5 | C/C(=N\NC(=O)c1ccc(C(=O)NCCc2cccnc2)s1)c1csc(-c2ccc(OC(F)(F)F)cc2)c1O [Compound 32] | ≥ 3
6 | C/C(=N\NC(=O)c1ccc(C(=O)NCCc2cccnc2)s1)c1csc(-c2ccc(C(F)(F)F)cc2)c1O [Compound 33] | ≥ 3

same assay, conditions: 168 h, 1 μg/mL compound, number of CD34+ cells relative to absence of compound, 7 days, StemSpan SFEM with 100 ng/mL SCF, read-out: Expansion efficiency

Row | SMILES | fold induction at 1 µg/mL
7 | C/C(=N\NC(=S)Nc1ccc(C(=O)O)cc1)c1nn(C)c(-c2ccc(C(F)(F)F)cc2)c1O [Compound 1] | ≥ 3
8 | C/C(=N\NC(=O)c1ccc(C(=O)O)cc1)c1csc(-c2ccc(Cl)c(Cl)c2)c1O [Compound 2] | 2 to 3
9 | C/C(=N\NC(=S)Nc1ccc(C(=O)O)cc1)c1csc(-c2ccc(C(F)(F)F)cc2)c1O [Compound 3] | ≥ 3
10 | C/C(=N\NC(=O)c1ccc(C(=O)O)c([NH2+][O-])c1)c1csc(-c2ccc(C(C)(C)C)cc2)c1O [Compound 4] | ≥ 3
11 | C/C(=N\NC(=O)c1ccc(C(=O)O)c([NH2+][O-])c1)c1csc(-c2ccc(Cl)c(Cl)c2)c1O [Compound 5] | 2 to 3
12 | C/C(=N\NC(=O)c1ccc(C(=O)O)s1)c1csc(-c2ccc(Cl)c(Cl)c2)c1O [Compound 6] | 2 to 3
13 | C/C(=N\NC(=O)c1ccc(C(=O)O)s1)c1csc(-c2ccc(C(F)(F)F)cc2)c1O [Compound 7] | ≥ 3
14 | C/C(=N\NC(=O)c1ccc(C(=O)O)c([NH2+][O-])c1)c1csc(-c2ccc(C(F)(F)F)cc2)c1O [Compound 8] | ≥ 3
15 | C/C(=N\NC(=S)Nc1ccc(C(=O)O)c([N+](=O)[O-])c1)c1csc(-c2ccc(C(C)(C)C)cc2)c1O [Compound 10] | ≥ 3
16 | C/C(=N\NC(=S)Nc1ccc(C(=O)O)c([N+](=O)[O-])c1)c1csc(-c2ccc(Cl)c(Cl)c2)c1O [Compound 11] | ≥ 3
17 | C/C(=N\NC(=S)Nc1ccc(C(=O)O)c([N+](=O)[O-])c1)c1csc(-c2ccc(C(F)(F)F)cc2)c1O [Compound 12] | ≥ 3
18 | C/C(=N\NC(=S)Nc1ccc(C(=O)O)c(Cl)c1)c1nn(C)c(-c2ccc(C(F)(F)F)cc2)c1O [Compound 13] | ≥ 3
19 | C/C(=N\NC(=S)Nc1ccc(C(=O)O)c(Cl)c1)c1csc(-c2ccc(Cl)c(Cl)c2)c1O [Compound 14] | ≥ 3
20 | C/C(=N\NC(=O)c1ccc(C(=O)N2CCCC2)s1)c1csc(-c2ccc(C(F)(F)F)cc2)c1O [Compound 15] | ≥ 3
21 | C/C(=N\NC(=S)Nc1cccc(C(=O)O)c1)c1csc(-c2ccc(Cl)c(Cl)c2)c1O [Compound 16] | 2 to 3
22 | C/C(=N\NC(=S)Nc1cccc(C(=O)O)c1)c1nn(C)c(-c2ccc(C(F)(F)F)cc2)c1O [Compound 18] | ≥ 3
23 | C/C(=N\NC(=O)c1ccc(C(=O)NCCO)s1)c1csc(-c2ccc(C(F)(F)F)cc2)c1O [Compound 19] | ≥ 3
24 | C/C(=N\NC(=S)Nc1cccc(C(=O)O)c1)c1csc(-c2ccc(C(C)(C)C)cc2)c1O [Compound 20] | ≥ 3
25 | C/C(=N\NC(=S)Nc1cccc(C(=O)O)c1)c1csc(-c2ccc(C)c(C)c2)c1O [Compound 21] | ≥ 3
26 | C/C(=N\NC(=S)Nc1ccc(C(=O)O)cc1)c1csc(-c2ccc(C)c(C)c2)c1O [Compound 22] | ≥ 3
27 | C/C(=N\NC(=S)Nc1ccc(S(N)(=O)=O)cc1)c1nn(C)c(-c2ccc(Cl)c(Cl)c2)c1O [Compound 23] | 2 to 3
28 | C/C(=N\NC(=O)c1ccc(C(=O)O)cc1N)c1nn(C)c(-c2ccc(C(F)(F)F)cc2)c1O [Compound 24] | ≥ 3
29 | C/C(=N\NC(=O)c1ccc(C(=O)NCC(=O)O)s1)c1csc(-c2ccc(OC(F)(F)F)cc2)c1O [Compound 25] | ≥ 3
30 | C/C(=N\NC(=O)c1ccc(C(=O)NC(C)C)s1)c1nn(C)c(-c2ccc(Cl)c(Cl)c2)c1O [Compound 26] | ≥ 3
31 | C/C(=N\NC(=O)c1ccc(C(=O)NCCc2ccncc2)s1)c1csc(-c2ccc(Cl)c(Cl)c2)c1O [Compound 28] | ≥ 3
32 | C/C(=N\NC(=O)c1ccc(C(=O)NCCCc2ccncc2)s1)c1csc(-c2ccc(Cl)c(Cl)c2)c1O [Compound 34] | ≥ 3
33 | C/C(=N\NC(=O)c1ccc(C(=O)NCCc2ccnn2C)s1)c1csc(-c2ccc(Cl)c(Cl)c2)c1O [Compound 35] | ≥ 3
34 | C/C(=N\NC(=O)c1ccc(C(=O)NCCCc2ccncc2)s1)c1csc(-c2ccc(C(F)(F)F)cc2)c1O [Compound 36] | ≥ 3
35 | C/C(=N\NC(=O)c1ccc(C(=O)NCc2cc(C)n(C)n2)s1)c1nn(C)c(-c2ccc(C(F)(F)F)cc2)c1O [Compound 37] | ≥ 3
